Legend:
[1] = Measurement of unsaturated bond formation (lyase activity) using absorbance at 232 nm; type: biochemical; conditions: 0.2% heparin, measured every 10 minutes for 1 hour, FIG. 1
Method: Measurement of Unsaturated Bond Formation Using Absorbance at 232 nm:
Reactions were prepared in 1 ml quartz cuvettes. For heparinase I [Lavobacterium heparinum, Sigma, Cat. No. H2519], 3 units enzyme were added to a reaction mixture A (18 mM Tris buffer pH 7.5, 45 mM NaCl, 4 mM CaCl2, 0.01% BSA) containing 0.2% heparin. For recombinant heparanase (expressed in insect cells, see, U.S. patent application Ser. Nos. 08/922,170; 09/071,618; 09/109,386; 09/258,892 and 09/260,038 and in PCT/US98/17954 and PCT/US98/09256, all of which are incorporated herein by reference), 5 mg enzyme were added to a reaction mixture B (20 mM phosphate citrate buffer pH 5.4, 1 mM CaCl2, 1 mM NaCl and 0.01% BSA) containing 0.2% heparin. Absorbance at 232 nm was measured in a Cary 100 (Varian) spectrophotometer every 10 minutes for a period of 1 hour.
Partially purified recombinant human heparanase expressed in insect cells was examined to determine whether it is a lyase or hydrolase. A bacterial heparinase I which is a lyase was used as a control. The formation of an unsaturated bond by lyase activity as measured by 232 nm absorbance was performed as described under experimental procedures above.

B16 melanoma = conditions: lung metastases induced by B16 melanoma, experimental animals; cited from earlier work
[2] = system: mammary adenocarcinoma cells; conditions: lung metastases induced by mammary adenocarcinoma cells, experimental animals; cited from earlier work
Lewis lung carcinoma = conditions: lung metastases induced by Lewis lung carcinoma, experimental animals; cited from earlier work

lyase activity: 232 nm absorbance (formation of Δ4,5 unsaturated bond of heparin) [1]	Substance	reduction of the incidence of lung metastases (B16 melanoma)	reduction of the incidence of lung metastases [2]	reduction of the incidence of lung metastases (Lewis lung carcinoma)
linear increase	heparinase I	–	–	–
–	laminarin sulfate	> 90%	> 90%	> 90%
